Earlier results on one compound are cited in US20190000834A1, “INJECTABLE COMPOSITION AND A METHOD OF TREATMENT OF THE PHYSICAL ADDICTION” (VERITA RESEARCH PTE LTD, priority 2015, published 2019).

The test system of data set [1] is amphetamine dependence. The note with it: Naltrexone 50 mg along with CBT, 12 weeks.
Data set [2] relates to amphetamine dependent patients. The following applies: naltrexone 50 mg.
For data set [3], the system named is amphetamine dependence. The following applies: outpatients.
Data set [4] relates to methamphetamine self-administering animals.

SMILES strings stand for the structures.

In the case of `O=C1CC[C@@]2(O)[C@H]3Cc4ccc(O)c5c4[C@@]2(CCN3CC2CC2)[C@H]1O5` [Naltrexone, (4R,4aS,7aR,12bS)-3-(cyclopropylmethyl)-4a,9-dihydroxy-2,4,5,6,7a,13-hexahydro-1H-4,12-methanobenzofuro [3,2-e] isoquinoline-7-one], the tolerability entry in data set [1] is “well tolerated”. Also, in data set [2], the craving result is “significantly blocked” and the “subjective effects produced by dexamphetamine” value is listed as “significantly attenuated”. Also, in data set [3], the amphetamine use result is listed as “effective in reducing amphetamine use”. The “cue- and drug-induced methamphetamine seeking” value in data set [4] is reported as “attenuated cue—but not drug-induced methamphetamine”.
